Source: ChEMBL document CHEMBL1795322, “Inhibition of the cellular function of perforin by 1-amino-2,4-dicyanopyrido[1,2-a]benzimidazoles” (Bioorg Med Chem, 2011)
pIC50: −log10 of the molar value.

Tests used:
[1] = biological target: T1, Perforin-1 (Homo sapiens) (UniProt P14222); assay: Inhibition of perforin released from human KHYG-1 NK cells assessed as inhibition of perforin mediated lysis of human K562 cells at 20 uM in presence of 10% mouse serum by [51Cr] release assay; type: cell-based
T1 sequence (whole entry): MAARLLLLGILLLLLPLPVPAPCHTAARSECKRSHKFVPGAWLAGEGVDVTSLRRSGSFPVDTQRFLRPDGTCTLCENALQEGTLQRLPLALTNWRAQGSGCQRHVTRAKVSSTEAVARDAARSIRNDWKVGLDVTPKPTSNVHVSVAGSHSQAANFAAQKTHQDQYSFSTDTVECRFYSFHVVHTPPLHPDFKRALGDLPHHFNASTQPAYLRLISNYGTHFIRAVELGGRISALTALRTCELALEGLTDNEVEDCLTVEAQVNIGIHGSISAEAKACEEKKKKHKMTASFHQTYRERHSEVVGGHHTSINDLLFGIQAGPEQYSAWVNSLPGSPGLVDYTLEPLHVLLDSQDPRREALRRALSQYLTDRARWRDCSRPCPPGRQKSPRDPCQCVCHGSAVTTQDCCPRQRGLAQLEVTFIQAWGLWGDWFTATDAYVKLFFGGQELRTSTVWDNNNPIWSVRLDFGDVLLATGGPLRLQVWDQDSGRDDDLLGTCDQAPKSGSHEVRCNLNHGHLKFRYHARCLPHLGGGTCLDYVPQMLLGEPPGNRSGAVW

[2] = biological target: T1, Perforin-1 (Homo sapiens); assay: Inhibition of perforin released from human KHYG-1 NK cells assessed as inhibition of perforin mediated lysis of human K562 cells at 20 uM in presence of 0.1% BSA by [51Cr] release assay; type: cell-based
[3] = Inhibition of recombinant perforin mediated lysis of human Jurkat cells pre-incubated for 30 mins with perforin followed by incubation with Jurkat cells at 37 degC for 4 hrs in presence of 0.1% BSA by [51Cr] release assay
[4] = Toxicity against human KHYG-1 NK cells assessed as cell viability at 20 uM incubated for 24 hrs at 37 degC y Trypan blue exclusion method; type: cell-based; details: read-out: Activity

| Compound | inhibition [1] [%] | inhibition [2] [%] | pIC50 [3] | viability at 24 h, 20 µM [4] [%] |
| --- | --- | --- | --- | --- |
| Cc1cc2c(c(=S)[nH]1)C(=O)O/C2=C\c1csc2ccccc12 | 6 | 60 | 6.01 | 88 |
| N#Cc1c(-c2ccc(C(=O)NCCCO)cc2)c(C#N)c2nc3ccccc3n2c1N | 7 | 0 |  | 86 |
| CCNC(=O)c1ccc(-c2c(C#N)c(N)n3c(nc4ccccc43)c2C#N)cc1 | 12 | 19 |  | 53 |
| CN(C)C(=O)CCc1ccc(-c2c(C#N)c(N)n3c(nc4ccccc43)c2C#N)cc1 | 64 | 49 |  | 96 |
| N#Cc1c(-c2ccc(C(N)=O)cc2)c(C#N)c2nc3ccccc3n2c1N | 6 | 7 |  | 79 |
| Cc1cc2nc3c(C#N)c(-c4ccc(OCC(N)=O)cc4)c(C#N)c(N)n3c2cc1C | 5 | 38 |  | 62 |
| N#Cc1c(-c2ccc(OCC(N)=O)cc2)c(C#N)c2nc3ccccc3n2c1N | 2 | 18 |  | 86 |
| N#Cc1c(-c2ccc(C(=O)NCC(O)CO)cc2)c(C#N)c2nc3ccccc3n2c1N (configuration not stated) | 0 | 0 |  | 84 |
| N#Cc1c(-c2ccc(OCCO)cc2)c(C#N)c2nc3ccccc3n2c1N | 16 | 15 |  | 85 |
| CN(C)C(=O)COc1ccc(-c2c(C#N)c(N)n3c(nc4ccccc43)c2C#N)cc1 | 25 | 34 |  | 78 |
| N#Cc1c(-c2ccc(C(=O)NCCc3ccncc3)cc2)c(C#N)c2nc3ccccc3n2c1N | 20 | 15 |  | 62 |
| CNC(=O)c1ccc(-c2c(C#N)c(N)n3c(nc4ccccc43)c2C#N)cc1 | 12 | 9 |  | 84 |
| N#Cc1c(-c2ccc(C(=O)NCCO)cc2)c(C#N)c2nc3ccccc3n2c1N | 12 | 4 |  | 89 |
| Cc1ccc2c(nc3c(C#N)c(-c4ccc(OCC(N)=O)cc4)c(C#N)c(N)n32)c1C | 7 | 36 |  | 60 |
| N#Cc1c(-c2ccc(C(=O)NCCN3CCOCC3)cc2)c(C#N)c2nc3ccccc3n2c1N | 5 | 1 |  | 85 |
| CNC(=O)COc1ccc(-c2c(C#N)c(N)n3c(nc4ccccc43)c2C#N)cc1 | 42 | 41 |  | 84 |
| CC(O)CNC(=O)c1ccc(-c2c(C#N)c(N)n3c(nc4ccccc43)c2C#N)cc1 (configuration not stated) | 0 | 0 |  | 68 |
| N#Cc1c(-c2ccc(OCC(=O)NCCO)cc2)c(C#N)c2nc3ccccc3n2c1N | 6 | 0 |  | 92 |
| CCCNC(=O)COc1ccc(-c2c(C#N)c(N)n3c(nc4ccccc43)c2C#N)cc1 | 22 | 41 |  | 90 |
| Cc1cccc2c1nc1c(C#N)c(-c3ccc(OCC(N)=O)cc3)c(C#N)c(N)n12 | 8 | 10 |  | 88 |
| CCNC(=O)COc1ccc(-c2c(C#N)c(N)n3c(nc4ccccc43)c2C#N)cc1 | 11 | 0 |  | 77 |
| CC(C)NC(=O)COc1ccc(-c2c(C#N)c(N)n3c(nc4ccccc43)c2C#N)cc1 | 22 | 52 |  | 70 |
